The source of these data is ChEMBL document CHEMBL1201862, “PubChem BioAssay data set” (2004).

Calls of active or inactive are those of the source.

Assay [1] in a line: NIH-3T3 fibroblast cytotoxicity, dose response, cytotoxicity control, cell-based, fluorescence, Alamar Blue, secondary assay (AID 2327).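 Note: NIH-3T3 mouse fibroblasts cultured with fluconazole at 8 µg/mL.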 Format: functional. A general note: Resazurin is reduced to fluorescent resorufin, in cell work by metabolically active cells.
Assay [2] can be described thus: C. albicans growth with fluconazole, confirmation, fluorescence, retest (AID 2467). Format: functional, cell-based.
For assay [3], the target named is T1, Serine/threonine-protein phosphatase (Candida dubliniensis (strain CD36 / CBS 7987 / NCPF 3949 / NRRLY-17841) (Yeast), UniProt B9W6M3).
T1 sequence (B9W6M3 whole entry): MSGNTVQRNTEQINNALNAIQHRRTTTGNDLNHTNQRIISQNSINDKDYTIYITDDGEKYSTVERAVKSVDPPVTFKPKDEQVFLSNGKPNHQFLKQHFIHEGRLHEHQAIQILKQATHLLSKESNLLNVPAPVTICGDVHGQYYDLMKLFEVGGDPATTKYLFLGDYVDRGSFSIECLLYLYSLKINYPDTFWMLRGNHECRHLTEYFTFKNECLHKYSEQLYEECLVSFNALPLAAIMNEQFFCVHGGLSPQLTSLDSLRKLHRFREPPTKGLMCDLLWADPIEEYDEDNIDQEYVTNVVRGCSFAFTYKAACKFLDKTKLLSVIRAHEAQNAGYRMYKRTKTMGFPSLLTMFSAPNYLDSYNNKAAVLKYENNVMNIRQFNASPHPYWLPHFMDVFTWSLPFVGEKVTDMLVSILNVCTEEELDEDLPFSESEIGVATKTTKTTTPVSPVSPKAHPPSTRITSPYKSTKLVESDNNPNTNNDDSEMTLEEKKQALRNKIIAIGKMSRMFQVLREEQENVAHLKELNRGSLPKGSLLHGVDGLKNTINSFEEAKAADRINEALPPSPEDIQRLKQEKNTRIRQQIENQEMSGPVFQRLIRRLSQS
Nature of the assay: calcineurin pathway inhibitors in yeast reporter, dose response, S. cerevisiae, CDRE-lacZ, luminescence, secondary (AID 2388).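 Note: yeast reporter cells carrying a calcineurin-responsive lacZ construct stimulated with calcium chloride; luminescent beta-galactosidase reporter signal in whole cells rather than isolated phosphatase activity; potency for inhibition where a drop in reporter signal means calcineurin blockade.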 Format: functional, cell-based.

A short description of assay [4]: THP-1 cell cytotoxicity, dose response, cytotoxicity control for non-replicating M. tuberculosis project (AID 489025). Format: functional.
Assay [5] in a line: HepG2 cell cytotoxicity, dose response, cytotoxicity control for non-replicating M. tuberculosis project (AID 489018). Format: functional. The settings on record: Mycobacterium tuberculosis.
Assay [6] is described as follows: Vero E6 cell cytotoxicity, dose response, cytotoxicity control for non-replicating M. tuberculosis project, secondary assay (AID 492998). Format: functional, VeroE6. The settings on record: Vero C1008.
In assay [7] the target is T2, Short transient receptor potential channel 4 (Mus musculus, UniProt Q9QUQ5).
T2 sequence (Q9QUQ5 whole entry): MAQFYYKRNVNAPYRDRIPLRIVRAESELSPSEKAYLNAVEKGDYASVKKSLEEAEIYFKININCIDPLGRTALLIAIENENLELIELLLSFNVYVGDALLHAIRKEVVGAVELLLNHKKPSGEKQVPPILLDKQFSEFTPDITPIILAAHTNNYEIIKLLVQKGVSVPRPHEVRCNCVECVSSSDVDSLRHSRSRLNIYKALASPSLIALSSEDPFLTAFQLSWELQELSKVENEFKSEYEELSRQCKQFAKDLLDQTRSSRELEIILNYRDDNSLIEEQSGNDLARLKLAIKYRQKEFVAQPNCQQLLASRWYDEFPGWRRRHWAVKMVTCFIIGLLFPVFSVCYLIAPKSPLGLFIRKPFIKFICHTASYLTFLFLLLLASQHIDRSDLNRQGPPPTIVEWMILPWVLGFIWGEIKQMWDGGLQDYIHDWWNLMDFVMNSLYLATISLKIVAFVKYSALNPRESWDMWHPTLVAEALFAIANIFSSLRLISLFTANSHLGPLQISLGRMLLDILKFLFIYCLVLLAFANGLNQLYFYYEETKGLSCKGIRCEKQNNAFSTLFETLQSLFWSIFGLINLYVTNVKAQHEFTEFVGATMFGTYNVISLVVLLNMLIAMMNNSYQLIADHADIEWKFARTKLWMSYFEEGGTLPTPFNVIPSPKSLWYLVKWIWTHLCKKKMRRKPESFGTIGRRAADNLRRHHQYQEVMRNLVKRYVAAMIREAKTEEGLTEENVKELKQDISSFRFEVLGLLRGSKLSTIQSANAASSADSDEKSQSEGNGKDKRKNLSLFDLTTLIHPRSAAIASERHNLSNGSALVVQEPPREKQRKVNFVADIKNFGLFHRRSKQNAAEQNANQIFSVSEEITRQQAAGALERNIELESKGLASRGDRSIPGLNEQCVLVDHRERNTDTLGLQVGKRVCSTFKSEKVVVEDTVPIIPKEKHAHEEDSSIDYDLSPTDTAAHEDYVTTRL
As to the kind of experiment: mouse TRPC4 channel activators, dose response, cell-based, HEK293 TRPC4/mu-opioid, Fluo-4 calcium (AID 434937). Format: functional.

A further assay can be described thus: cells. Format: functional.
Assay [8] deals with T1, Serine/threonine-protein phosphatase. Nature of the assay: Fluorescence Cell-Based Secondary Assay to Identify Inhibitors of Calcineurin. [Related pubchem assays (depositor defined):AID1979, AID2007]. Format: functional.
Assay [9] deals with ATP-dependent molecular chaperone HSP82 (Candida albicans (strain WO-1) (Yeast), UniProt C4YTQ8). Nature of the assay: loss of DOC-induced GRE-beta-galactosidase reporter signal, dose response, Hsp90 inhibitor project, S. cerevisiae, luminescence (AID 2400).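 Note: beta-galactosidase luminescence from glucocorticoid response element reporter as proxy for Hsp90 function; inhibitor potency where signal loss means Hsp90 inhibition.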 Format: functional, cell-based.
ATP-dependent molecular chaperone HSP82, sequence (C4YTQ8 whole entry): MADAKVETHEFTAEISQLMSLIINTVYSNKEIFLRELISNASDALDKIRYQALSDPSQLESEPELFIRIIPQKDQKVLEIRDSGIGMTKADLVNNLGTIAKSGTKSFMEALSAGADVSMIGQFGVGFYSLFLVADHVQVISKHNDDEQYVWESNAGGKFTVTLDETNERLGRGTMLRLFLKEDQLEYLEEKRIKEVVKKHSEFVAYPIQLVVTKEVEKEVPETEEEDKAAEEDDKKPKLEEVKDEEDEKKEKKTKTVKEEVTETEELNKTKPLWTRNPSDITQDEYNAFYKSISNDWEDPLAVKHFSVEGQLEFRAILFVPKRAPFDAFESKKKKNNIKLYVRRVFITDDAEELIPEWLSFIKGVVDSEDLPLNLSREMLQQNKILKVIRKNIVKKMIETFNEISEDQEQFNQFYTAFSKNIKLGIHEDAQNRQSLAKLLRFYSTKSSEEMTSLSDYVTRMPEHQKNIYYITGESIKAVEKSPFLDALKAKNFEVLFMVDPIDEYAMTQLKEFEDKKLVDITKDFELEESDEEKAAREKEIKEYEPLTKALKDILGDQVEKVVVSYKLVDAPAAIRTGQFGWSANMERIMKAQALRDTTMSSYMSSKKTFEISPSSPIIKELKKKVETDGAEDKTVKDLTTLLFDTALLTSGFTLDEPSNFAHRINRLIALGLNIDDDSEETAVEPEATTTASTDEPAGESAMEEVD
Another assay has as its system Salmon testes DNA. As to the kind of experiment: DNA intercalators displacing acridine orange, dose response, artefact control for KSHV LANA DNA-binding inhibitor project, biochemical, fluorescence polarization, cherry-picked samples, set 2 (AID 504727). Also on record: species or system Salmonidae. On the technique in general: Fluorescence polarisation rises when a labelled molecule tumbles more slowly, as on binding a larger partner.

For a further assay, the target named is ORF 73 (Human herpesvirus 8, UniProt O40947). As to the kind of experiment: inhibitors of C-LANA binding to LBS DNA, dose response, biochemical, fluorescence polarization, cherry-picked samples (AID 504725).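 Note: fluorescence polarization of a labeled DNA duplex reporting LANA DNA binding; potency is for inhibitors that block LANA binding to the DNA.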 Also on record: species or system Human gammaherpesvirus 8.
ORF 73, sequence (O40947 whole entry): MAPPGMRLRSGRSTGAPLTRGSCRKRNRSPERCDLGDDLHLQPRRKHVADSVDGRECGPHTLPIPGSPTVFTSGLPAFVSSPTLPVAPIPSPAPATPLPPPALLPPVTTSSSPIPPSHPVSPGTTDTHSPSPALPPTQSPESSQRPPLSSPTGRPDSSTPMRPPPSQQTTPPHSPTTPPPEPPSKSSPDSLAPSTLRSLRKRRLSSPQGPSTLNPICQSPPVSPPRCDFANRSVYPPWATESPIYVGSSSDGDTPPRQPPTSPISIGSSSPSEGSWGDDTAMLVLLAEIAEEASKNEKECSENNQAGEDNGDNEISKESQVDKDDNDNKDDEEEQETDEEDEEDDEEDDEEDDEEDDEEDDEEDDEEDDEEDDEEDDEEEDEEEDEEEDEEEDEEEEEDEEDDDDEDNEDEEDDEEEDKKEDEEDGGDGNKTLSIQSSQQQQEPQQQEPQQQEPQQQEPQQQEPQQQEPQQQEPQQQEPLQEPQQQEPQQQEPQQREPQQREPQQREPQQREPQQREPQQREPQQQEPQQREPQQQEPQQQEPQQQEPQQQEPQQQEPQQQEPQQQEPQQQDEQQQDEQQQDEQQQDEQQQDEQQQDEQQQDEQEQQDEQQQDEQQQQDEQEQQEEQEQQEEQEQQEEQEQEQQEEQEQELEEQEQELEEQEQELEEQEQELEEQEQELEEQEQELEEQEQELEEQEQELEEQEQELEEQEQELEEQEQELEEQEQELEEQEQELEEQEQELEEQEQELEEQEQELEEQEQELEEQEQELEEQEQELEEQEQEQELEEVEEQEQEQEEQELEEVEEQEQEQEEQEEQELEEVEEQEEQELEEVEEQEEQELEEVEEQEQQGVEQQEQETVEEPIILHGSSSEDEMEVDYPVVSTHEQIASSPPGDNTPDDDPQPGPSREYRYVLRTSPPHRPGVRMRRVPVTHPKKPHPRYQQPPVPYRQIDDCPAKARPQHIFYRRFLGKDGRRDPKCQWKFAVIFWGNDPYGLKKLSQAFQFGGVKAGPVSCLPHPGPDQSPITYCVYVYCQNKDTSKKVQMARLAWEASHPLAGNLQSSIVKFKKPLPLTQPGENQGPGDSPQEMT
The target in assay [10] is UDP-galactopyranose mutase (Mycobacterium tuberculosis, UniProt P9WIQ1). Nature of the assay: Inhibitors of Mycobacterium tuberculosis UDP-galactopyranose mutase (UGM) enzyme Measured in Biochemical System Using Plate Reader - 2105-02_Inhibitor_Dose_CherryPick_Activity. [Related pubchem assays (depositor defined):AID504439].
UDP-galactopyranose mutase, sequence (P9WIQ1 whole entry): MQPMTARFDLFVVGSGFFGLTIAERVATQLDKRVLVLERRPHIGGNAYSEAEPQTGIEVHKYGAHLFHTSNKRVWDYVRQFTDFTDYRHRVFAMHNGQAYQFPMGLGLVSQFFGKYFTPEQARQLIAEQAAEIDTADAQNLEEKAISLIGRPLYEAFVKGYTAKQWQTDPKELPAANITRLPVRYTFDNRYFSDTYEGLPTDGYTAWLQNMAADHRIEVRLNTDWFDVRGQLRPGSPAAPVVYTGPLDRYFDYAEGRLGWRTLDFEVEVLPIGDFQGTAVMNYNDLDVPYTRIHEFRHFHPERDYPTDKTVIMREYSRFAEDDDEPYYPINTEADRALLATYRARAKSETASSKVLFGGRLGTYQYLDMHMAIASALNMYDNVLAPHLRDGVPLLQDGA
In assay [11] the test system is Streptococcus sp. 'group A'. Nature of the assay: growth inhibition of control SK(-) GAS strain, dose response, counter-screen for streptokinase expression inhibitor project, luminescence, kanamycin, BacTiterGlo, confirmation (AID 1900). Format: functional, organism-based. A general note: Counterscreens check selectivity or assay interference.
The target in the next assay is T3, Streptokinase A (Streptococcus pyogenes serotype M1, UniProt P10520).
T3 sequence (P10520 whole entry): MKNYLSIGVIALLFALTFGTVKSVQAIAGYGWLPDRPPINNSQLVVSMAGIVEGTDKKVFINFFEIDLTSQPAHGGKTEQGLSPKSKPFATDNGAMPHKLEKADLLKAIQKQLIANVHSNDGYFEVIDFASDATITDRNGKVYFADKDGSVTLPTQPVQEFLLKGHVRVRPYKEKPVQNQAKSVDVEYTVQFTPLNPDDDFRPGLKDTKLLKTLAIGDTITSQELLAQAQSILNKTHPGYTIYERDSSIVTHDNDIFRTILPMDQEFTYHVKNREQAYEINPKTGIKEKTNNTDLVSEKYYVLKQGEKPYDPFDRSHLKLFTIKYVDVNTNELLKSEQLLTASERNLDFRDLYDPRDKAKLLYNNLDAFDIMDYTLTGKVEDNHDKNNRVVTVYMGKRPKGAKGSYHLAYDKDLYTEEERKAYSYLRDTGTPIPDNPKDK
As to the kind of experiment: S. pyogenes streptokinase expression inhibitors, potency, dose response, plasminogen activation absorbance, OD405 (AID 1914).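 Note: secreted streptokinase activity via plasminogen activation per viability signal from cell pellet.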 Format: functional, Streptococcus pyogenes M1 GAS.

A further assay deals with Streptococcus. Nature of the assay: Group A Streptococcus viability loss, dose response, counter-screen for streptokinase expression inhibitor project, luminescence, BacTiterGlo (AID 1915).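 Note: potency for reduction of bacterial viability or growth.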 Format: functional, organism-based.
The test system of another assay is CHO-K1. As to the kind of experiment: Counterscreen for antagonists of the orexin 1 receptor (OX1R; HCRTR1): Homogeneous time resolved fluorescence (HTRF)-based cell-based dose response assay to identify antagonists of the parental CHO-K1 cell line. [Related pubchem assays (depositor defined):AID434989, AID435008, AID463079, AID485270, AID492963, AID492964, AID492965, AID493232, AID504699, AID504701]. Format: functional. Conditions: Cricetulus griseus.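 Note: potency for inhibition of ATP-stimulated IP1 production as antagonists.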

Assay [12] is described as follows: Luminescence Cell-Based Dose Retest to Confirm Inhibitors of Cancer Stem Cells. [Related pubchem assays (depositor defined):AID2717, AID2721]. Format: functional. The settings on record: Homo sapiens.
The nature of assay [13]: Counterscreen for antagonists of the orexin 1 receptor (OX1R; HCRTR1): Fluorescence-based cell-based high throughput dose response assay to identify antagonists of the parental CHO cell line. [Related pubchem assays (depositor defined):AID434989, AID435008, AID463079, AID485270, AID492963, AID492964, AID492965, AID493232, AID504699, AID504701]. Format: functional.
Assay [14] concerns the target T4, Orexin/Hypocretin receptor type 1 (Homo sapiens, UniProt O43613).
T4 sequence (O43613 whole entry): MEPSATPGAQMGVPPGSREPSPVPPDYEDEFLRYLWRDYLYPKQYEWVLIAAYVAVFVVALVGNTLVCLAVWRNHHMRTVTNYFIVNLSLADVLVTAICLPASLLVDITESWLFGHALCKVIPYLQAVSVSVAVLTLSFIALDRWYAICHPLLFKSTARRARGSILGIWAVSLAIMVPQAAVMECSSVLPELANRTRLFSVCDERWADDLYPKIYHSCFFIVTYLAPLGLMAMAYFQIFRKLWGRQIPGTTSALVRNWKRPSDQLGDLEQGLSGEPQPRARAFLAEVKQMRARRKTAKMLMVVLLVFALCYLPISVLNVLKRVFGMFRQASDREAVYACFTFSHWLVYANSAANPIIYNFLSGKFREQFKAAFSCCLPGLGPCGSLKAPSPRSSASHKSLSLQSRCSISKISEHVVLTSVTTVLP
As to the kind of experiment: Homogeneous Time Resolved Fluorescence (HTRF)-based cell-based high throughput dose response assay for antagonists of the orexin 1 receptor (OX1R; HCRTR1). [Related pubchem assays (depositor defined):AID434989, AID435008, AID463079, AID485270, AID492963, AID492964, AID492965, AID493232, AID504717, AID504718]. Format: functional.

Assay [15] in a line: cytotoxicity in HMLE control line with eGFP shRNA, dose response, counter-screen for HMLE_sh_ECad selective toxicity project, cell-based, HMLE_sh_eGFP, luminescence (AID 463074).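 Note: HMLE human mammary epithelial cells expressing control shRNA against eGFP.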 Format: functional, Homo sapiens.
For assay [16], the target named is T4, Orexin/Hypocretin receptor type 1. Nature of the assay: Fluorescence-based cell-based high throughput dose response assay for antagonists of the orexin 1 receptor (OX1R; HCRTR1). [Related pubchem assays (depositor defined):AID434989, AID435008, AID463079, AID485270, AID492963, AID492964, AID492965, AID493232, AID504717, AID504718]. Format: functional.
For assay [17], the target named is T5, Orexin receptor type 2 (Homo sapiens, UniProt O43614).
T5 sequence (O43614 whole entry): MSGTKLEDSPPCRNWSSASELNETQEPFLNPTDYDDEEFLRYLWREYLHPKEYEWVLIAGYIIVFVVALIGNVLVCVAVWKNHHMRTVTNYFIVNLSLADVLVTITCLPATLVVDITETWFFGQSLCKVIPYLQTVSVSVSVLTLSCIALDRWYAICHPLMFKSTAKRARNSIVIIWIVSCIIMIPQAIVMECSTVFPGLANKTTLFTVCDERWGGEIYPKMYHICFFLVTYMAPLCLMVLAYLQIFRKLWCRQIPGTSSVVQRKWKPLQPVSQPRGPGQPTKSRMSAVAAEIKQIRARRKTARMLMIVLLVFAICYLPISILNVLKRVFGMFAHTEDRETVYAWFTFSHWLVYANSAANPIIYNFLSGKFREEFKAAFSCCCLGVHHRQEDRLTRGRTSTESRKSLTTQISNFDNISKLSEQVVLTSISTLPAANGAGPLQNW
Nature of the assay: Counterscreen assay for antagonists of the orexin 1 receptor (OX1R; HCRTR1): Fluorescence-based cell-based dose response assay for antagonists of the orexin 2 receptor (OX2R; HCRTR2), run by assay provider. Format: functional.

For assay [18], the target named is T5, Orexin receptor type 2. As to the kind of experiment: Counterscreen assay for antagonists of the orexin 1 receptor (OX1R; HCRTR1): Homogeneous Time Resolved Fluorescence (HTRF)-based cell-based dose response assay for antagonists of the orexin 2 receptor (OX2R; HCRTR2), run by assay provider. Format: functional.

With `O=c1c2cc(Br)ccc2nc(-c2cccc(C(F)(F)F)c2)n1O`, the EC50 was 15.5 µM (inconclusive) in assay [1]; 451 nM (active) in assay [2]; 28.1 µM (active) in assay [3]; 5.96 µM (active) in assay [7]; 17.3 µM (active) in assay [8]; 4.04 µM (active) in assay [9]. In addition, the values for the CC50 in assay [4], in assay [5] and in assay [6] were 13.9 µM (active), 15.8 µM (active) and 11.6 µM (active), respectively. For the same molecule, the IC50 in “cells” was 8.38 µM (active).

On to `Cn1cc(/C=C2\C(=O)NC(=O)N(c3ccccc3)C2=O)c2ccccc21`, for which the AC50 was 92.2 µM (active) in the assay on Salmon testes DNA, 41.3 µM (active) on ORF 73 and 71.9 µM (active) in [10].

For the molecule `O=c1c2ccccc2oc2cc(-c3ccc4[nH]ccc4c3)ccc12`, the EC50 is 8.57 µM (active) in [11], > 150 µM (not active) at Streptokinase A and > 150 µM (not active) with Streptococcus. In addition, the IC50 in the assay with CHO-K1 was > 66.3 µM (inactive); in assay [13], 48.8 µM (inactive); in assay [14], 2.71 µM (active); in assay [16] it was 6.96 µM (active); on Orexin receptor type 2 [17], 40 µM (inactive); at Orexin receptor type 2 [18] it was > 50 µM (inactive). Further, the AC50 was 255 nM (active) in [12] and 290 nM (inconclusive) in [15].

By EC50 is commonly meant the concentration at which the effect is half-maximal. In general, CC50 refers to the concentration that lowers cell viability or growth by half. For orientation: IC50 means the concentration that gives 50% inhibition. One may read the AC50 as the concentration giving half of the maximal activity seen.
